# According to US5041567A, “Antibacterial monic acid derivatives” (Beecham Group plc, priority 1982, dated 1991):
# Where two headings read alike, the source gives them in different places.
# Legend:
# [1] = tested on: M. suipneumoniae NCTC 10110; test: MIC against mycoplasma in vitro; assay type: cell-based
# [2] = tested on: M. suipneumoniae ATCC 25095; test: MIC against mycoplasma in vitro; assay type: cell-based
# [3] = tested on: Strep. suis (group D) SPS11; test: MIC against veterinary bacteria in vitro
# Method: (§1) The activity of the compounds of the Examples against various veterinarily important bacteria, was assayed in vitro using two-fold serial dilutions in Diagnostic Sensitivity Test Agar inoculated with 10^4 organisms.
# M. dispar NCTC 10125 = test: MIC against mycoplasma in vitro; assay type: cell-based; settings: M. dispar NCTC 10125, 6 days, 37° C.
# [4] = tested on: M. suipneumoniae J2206/183^b; test: MIC against mycoplasma in vitro; assay type: cell-based
# M. suipneumoniae HK(2) = test: MIC against mycoplasma in vitro; assay type: cell-based
# Past. multocida PA2 = test: MIC against veterinary bacteria in vitro
# Method: as §1
# [5] = tested on: Staph. aureus B4 (pen. resistant); test: MIC against veterinary bacteria in vitro
# Method: as §1
# M. pneumoniae ATCC 15492 = test: MIC against mycoplasma in vitro; assay type: cell-based; settings: M. pneumoniae ATCC 15492, 6 days, 37° C.
# Staph. aureus Oxford [6] = test: MIC against veterinary bacteria in vitro
# Method: as §1
# M. suipneumoniae LABER = test: MIC against mycoplasma in vitro; assay type: cell-based
# M. hyorhinis ATCC 23234 = test: MIC against mycoplasma in vitro; assay type: cell-based
# Strep. agalactiae SPA1 = test: MIC against veterinary bacteria in vitro
# Method: as §1
# Strep. pneumoniae CN33 = test: MIC against human bacteria in vitro; assay type: cell-based; settings: Strep. pneumoniae CN33, 5% chocolated horse blood agar, 18 hours
# [7] = tested on: Haemophilus influenzae Wy21; test: MIC against human bacteria in vitro; assay type: cell-based
# S. dublin S7 = test: MIC against veterinary bacteria in vitro
# Method: as §1
# Bord. bronchiseptica B08 = test: MIC against veterinary bacteria in vitro
# Method: as §1
# Staph. aureus W2827 = test: MIC against human bacteria in vitro; assay type: cell-based; settings: Staph. aureus W2827, 5% chocolated horse blood agar, 18 hours
# [8] = tested on: Pasteurella multocida 1633; test: MIC against human bacteria in vitro; assay type: cell-based; settings: Pasteurella multocida 1633, 5% chocolated horse blood agar, 18 hours
# [9] = tested on: M. hyosynoviae ATCC 25591; test: MIC against mycoplasma in vitro; assay type: cell-based
# Staph. aureus Russell = test: MIC against human bacteria in vitro; assay type: cell-based; settings: Staph. aureus Russell, 5% chocolated horse blood agar, 18 hours
# M. hyorhinis ATCC 25021 = test: MIC against mycoplasma in vitro; assay type: cell-based
# E. coli ESS = test: MIC against human bacteria in vitro; assay type: cell-based; settings: E. coli ESS, 5% chocolated horse blood agar, 18 hours
# Bacillus subtilis 6633 = test: MIC against human bacteria in vitro; assay type: cell-based; settings: Bacillus subtilis 6633, 5% chocolated horse blood agar, 18 hours
# [10] = tested on: Corynebacterium pyogenes CY1; test: MIC against veterinary bacteria in vitro
# Method: as §1
# Staph. aureus Oxford [11] = test: MIC against human bacteria in vitro; assay type: cell-based; settings: Staph. aureus Oxford, 5% chocolated horse blood agar, 18 hours
# M. suipneumoniae UCD 1 = test: MIC against mycoplasma in vitro; assay type: cell-based
# Past. haemolytica PA5 = test: MIC against veterinary bacteria in vitro
# Method: as §1
# M. suipneumoniae JF 435 = test: MIC against mycoplasma in vitro; assay type: cell-based
# [12] = tested on: Corynebacterium xerosis 9755; test: MIC against human bacteria in vitro; assay type: cell-based; settings: Corynebacterium xerosis 9755, 5% chocolated horse blood agar, 18 hours
# [13] = tested on: Erysipelothrix rhusiopathiae NCTC 8163; test: MIC against veterinary bacteria in vitro
# Method: as §1
# Past. multocida PA1 = test: MIC against veterinary bacteria in vitro
# Method: as §1
# Strep. agalactiae 2788-B = test: MIC against human bacteria in vitro; assay type: cell-based; settings: Strep. agalactiae 2788-B, 5% chocolated horse blood agar, 18 hours
# [14] = Mesomycoplasma hyopneumoniae, 144 h
# [15] = Staphylococcus aureus, read-out: MIC
smiles,measurement,setting,value
"CC(=Cc1cc(C)no1)CC1OCC(CC2OC2C(C)C(C)O)C(O)C1O (stereo not drawn) [Example 30, 3-Methyl-5-(1-normon-2-yl) isoxazole A]",MIC,"[1]; M. suipneumoniae NCTC 10110, 6 days, 37° C.",2.5 µg/mL
same,MIC,"[2]; M. suipneumoniae ATCC 25095, 6 days, 37° C.",2.5 µg/mL
same,MIC,"[3]; Strep. suis (group D) SPS11, Diagnostic Sensitivity Test Agar, 18 hours",> 80 µg/mL
same,MIC,M. dispar NCTC 10125,0.25 µg/mL
same,MIC,"[4]; M. suipneumoniae J2206/183^b, 6 days, 37° C.",2.5 µg/mL
same,MIC,"M. suipneumoniae HK(2); M. suipneumoniae HK(2), 6 days, 37° C.",2.5 µg/mL
same,MIC,"Past. multocida PA2; Past. multocida PA2, Diagnostic Sensitivity Test Agar, 18 hours",0.312 µg/mL
same,MIC,"[5]; Staph. aureus B4 (pen. resistant), Diagnostic Sensitivity Test Agar, 18 hours",1.25 µg/mL
same,MIC,M. pneumoniae ATCC 15492,10 µg/mL
same,MIC,"Staph. aureus Oxford [6]; Staph. aureus Oxford, Diagnostic Sensitivity Test Agar, 18 hours",2.5 µg/mL
same,MIC,"M. suipneumoniae LABER; M. suipneumoniae LABER, 6 days, 37° C.",2.5 µg/mL
same,MIC,"M. hyorhinis ATCC 23234; M. hyorhinis ATCC 23234, 6 days, 37° C.",0.5 µg/mL
same,MIC,"Strep. agalactiae SPA1; Strep. agalactiae SPA1, Diagnostic Sensitivity Test Agar, 18 hours",40 µg/mL
same,MIC,Strep. pneumoniae CN33,128 µg/mL
same,MIC,"[7]; Haemophilus influenzae Wy21, 5% chocolated horse blood agar, 18 hours",< 0.06 µg/mL
same,MIC,"S. dublin S7; S. dublin S7, Diagnostic Sensitivity Test Agar, 18 hours",> 80 µg/mL
same,MIC,"Bord. bronchiseptica B08; Bord. bronchiseptica B08, Diagnostic Sensitivity Test Agar, 18 hours",> 80 µg/mL
same,MIC,Staph. aureus W2827,16 µg/mL
same,MIC,[8],8.0 µg/mL
same,MIC,"[9]; M. hyosynoviae ATCC 25591, 6 days, 37° C.",1.0 µg/mL
same,MIC,Staph. aureus Russell,16 µg/mL
same,MIC,"M. hyorhinis ATCC 25021; M. hyorhinis ATCC 25021, 6 days, 37° C.",0.5 µg/mL
same,MIC,E. coli ESS,8.0 µg/mL
same,MIC,Bacillus subtilis 6633,8.0 µg/mL
same,MIC,"[10]; Corynebacterium pyogenes CY1, Diagnostic Sensitivity Test Agar, 18 hours",> 80 µg/mL
same,MIC,Staph. aureus Oxford [11],8.0 µg/mL
same,MIC,"M. suipneumoniae UCD 1; M. suipneumoniae UCD 1, 6 days, 37° C.",2.5 µg/mL
same,MIC,"Past. haemolytica PA5; Past. haemolytica PA5, Diagnostic Sensitivity Test Agar, 18 hours",10 µg/mL
same,MIC,"M. suipneumoniae JF 435; M. suipneumoniae JF 435, 6 days, 37° C.",5.0 µg/mL
same,MIC,[12],> 128 µg/mL
same,MIC,"[13]; Erysipelothrix rhusiopathiae NCTC 8163, Diagnostic Sensitivity Test Agar, 18 hours",> 80 µg/mL
same,MIC,"Past. multocida PA1; Past. multocida PA1, Diagnostic Sensitivity Test Agar, 18 hours",2.5 µg/mL
same,MIC,Strep. agalactiae 2788-B,128 µg/mL
"C/C(=C\c1cc(C)on1)C[C@@H]1OC[C@H](C[C@@H]2O[C@H]2[C@@H](C)[C@H](C)O)[C@@H](O)[C@H]1O [Example 33, 5-Methyl-3-(1-normon-2-yl) isoxazole A]",MIC,"[1]; Mesomycoplasma hyopneumoniae, NCTC10110, 144 h",2.5 µg/mL
same,MIC,"[2]; Mesomycoplasma hyopneumoniae, ATCC25095, 144 h",1 µg/mL
same,MIC,"[3]; Streptococcus suis, 18 h",> 80 µg/mL
same,MIC,"M. dispar NCTC 10125; 144 h, read-out: MIC",0.5 µg/mL
same,MIC,[4]; [14],1 µg/mL
same,MIC,M. suipneumoniae HK(2); [14],2.5 µg/mL
same,MIC,"Past. multocida PA2; Pasteurella multocida, PA2, 18 h",0.625 µg/mL
same,MIC,"[5]; Staphylococcus aureus, 18 h",1.3 µg/mL
same,MIC,"M. pneumoniae ATCC 15492; Mycoplasmoides pneumoniae, ATCC15492, 144 h, read-out: MIC",10 µg/mL
same,MIC,"Staph. aureus Oxford [6]; Staphylococcus aureus, 18 h",2.5 µg/mL
same,MIC,M. suipneumoniae LABER; [14],2.5 µg/mL
same,MIC,"M. hyorhinis ATCC 23234; Mesomycoplasma hyorhinis, ATCC23234, 144 h",1 µg/mL
same,MIC,"Strep. agalactiae SPA1; Streptococcus agalactiae, SPA1, 18 h",10 µg/mL
same,MIC,"Strep. pneumoniae CN33; Streptococcus pneumoniae, read-out: MIC",32 µg/mL
same,MIC,"[7]; Haemophilus influenzae, WY21, 18 h",0.25 µg/mL
same,MIC,"S. dublin S7; Salmonella enterica, S7, 18 h",> 80 µg/mL
same,MIC,"Bord. bronchiseptica B08; Bordetella bronchiseptica, B08, 18 h",> 80 µg/mL
same,MIC,Staph. aureus W2827; [15],8 µg/mL
same,MIC,[8]; read-out: MIC,2 µg/mL
same,MIC,[9]; 144 h,2.5 µg/mL
same,MIC,Staph. aureus Russell; [15],8 µg/mL
same,MIC,"M. hyorhinis ATCC 25021; Mesomycoplasma hyorhinis, ATCC25021, 144 h",1 µg/mL
same,MIC,"E. coli ESS; Escherichia coli, read-out: MIC",8 µg/mL
same,MIC,Bacillus subtilis 6633; read-out: MIC,1 µg/mL
same,MIC,"[10]; CY1, 18 h",> 80 µg/mL
same,MIC,Staph. aureus Oxford [11]; [15],8 µg/mL
same,MIC,"M. suipneumoniae UCD 1; Mesomycoplasma hyopneumoniae, UCD1, 144 h",1 µg/mL
same,MIC,"Past. haemolytica PA5; Mannheimia haemolytica, PA5, 18 h",20 µg/mL
same,MIC,"M. suipneumoniae JF 435; Mesomycoplasma hyopneumoniae, JF435, 144 h",2.5 µg/mL
same,MIC,[12]; read-out: MIC,> 128 µg/mL
same,MIC,"[13]; Erysipelothrix rhusiopathiae, NCTC8163, 18 h",> 80 µg/mL
same,MIC,"Past. multocida PA1; Pasteurella multocida, PA1, 18 h",1.3 µg/mL
same,MIC,"Strep. agalactiae 2788-B; Streptococcus agalactiae, read-out: MIC",64 µg/mL
